Measured values: patent US20150259319A1, “AROMATIC ALKENOIC ACID DERIVATIVES” (Symrise AG, priority 2014, published 2015)

Tested on: human neuroblastoma cells (SH-SY5Y)
Assay: Serotonin release of SH-SY5Y cells after stimulation (Serotonin-ELISA, standardized to DNA content)
Details: for Serotonin release [% control]: 3 minutes stimulation in Krebs-Ringer HEPES buffer
Excerpt: After serotonin release, the cells are harvested with trypsin and, after a vitality test by trypan blue staining, sown in a defined number of cells in 35 mm cell culture dishes.
The cells are lysed with a sodium laurylsarcosinate-containing buffer and the DNA content is ascertained with the aid of a NanoQuant plate (Tecan, Ménnendorf, Switzerland) for standardization of the serotonin release.

SMILES | Serotonin release [% control] (0.01 μM compound) | Serotonin release [% control] (0.1 μM compound) | rise in serotonin release compared to the control (1 μM compound) [%] | Serotonin release [% control] (1 μM compound) | Serotonin release [% control] (10 μM compound)
COC(=O)/C=C/C=C/CCc1ccc2c(c1)OCO2 [Compound 4, 2E,4E-Methyl 7-(1,3-benzodioxol-5-yl)hepta-2,4-dienoate] | 129 | 123 | 240 | 239 | 171
O=C(/C=C/C=C/CCc1ccc2c(c1)OCO2)N1CCCCC1 [Compound 3, 2E,4E-7-(1,3-Benzodioxol-5-yl)-1-(1-piperidyl)hepta-2,4-dien-1-one] | 161 | 141 | 280 | 283 | 226
